Laboratory results as given in US12371454B2, “Cyclic peptide compound having Kras inhibitory action” (priority 2019, dated 2025).
Positions of bridges follow the written chain, without caps; N, C: chain ends. Non-standard residues stand in square brackets, D forms with d. Residues, ends and D or L forms follow the SMILES beside them. *: point of attachment. hPhe(3-Cl-4-CF3) = N[C@@H](CCc1ccc(C(F)(F)F)c(Cl)c1)C(=O)O; hPhe(3-F,4-CF3) = N[C@@H](CCc1ccc(C(F)(F)F)c(F)c1)C(=O)O; 3Oxa8azabicyclo(3.2.1)octane = C1CC2COCC1N2*; NMePhe(4-Cl) = CN[C@@H](Cc1ccc(Cl)cc1)C(=O)O; NMeGly(cPent) = CN[C@H](C(=O)O)C1CCCC1; NMeCha = CN[C@@H](CC1CCCCC1)C(=O)O; NMeAhp(2) = CCCCC[C@H](NC)C(=O)O; NMeChg = CN[C@H](C(=O)O)C1CCCCC1; NMeI = CC[C@H](C)[C@H](NC)C(=O)O; Gly(cBu) = N[C@H](C(=O)O)C1CCC1; NMeD = CN[C@@H](CC(=O)O)C(=O)O; NMeL = CN[C@@H](CC(C)C)C(=O)O; NMeV = CN[C@H](C(=O)O)C(C)C; d(β3hA) = C[C@@H](N)CC(=O)O; Azetidin(1-yl) = C1CN(*)C1; NMeS = CN[C@@H](CO)C(=O)O; NMeA = CN[C@@H](C)C(=O)O; Piperidide = C1CCN(*)CC1; Pyrrolidide = C1CCN(*)C1; Ac5c = NC1(C(=O)O)CCCC1; Aze = O=C(O)[C@@H]1CCN1; NEtG = CCNCC(=O)O; Sar = CNCC(=O)O; Propyl = CCC*

tested on: Human pancreatic cancer cell line AsPC-1; assay: Measurement of AsPC-1 cell growth inhibition (AsPC-1 CGI); type: cell-based; conditions: 96 h
Method: Measurement of AsPC-1 Cell Growth Inhibition (AsPC-1 CGI)
Test compounds were serially diluted with dimethyl sulfoxide, and 200 nL was then dispensed to a U-bottom 96-well plate using Labcyte Echo. Human pancreatic cancer cell line AsPC-1 was suspended in RPMI-1640 medium supplemented with 15% fetal bovine serum to prepare a cell suspension at 1000 cells/100 μL. The cell suspension was dispensed to a plate containing a test compound at 100 μL per well and incubated at 37° C. in a 5% carbon dioxide gas incubator. 96 hours later, 80 μL of CellTiter-Glo (Promega) was added to each well and […] was measured.

| Structure (SMILES) | IC50 |
| --- | --- |
| CCCCC[C@H]1C(=O)N[C@@H]([C@@H](C)CC)C(=O)N[C@@H](C)C(=O)N2CC[C@H]2C(=O)N(C)[C@@H](CC2CCCCC2)C(=O)N(C)CC(=O)N[C@@H](CCc2ccc(C(F)(F)F)c(Cl)c2)C(=O)N2CCC[C@H]2C(=O)NC2(CCCC2)C(=O)N(C)[C@@H](C2CCCC2)C(=O)N(C)[C@H](C(=O)N2CCC2)CC(=O)N1C [Compound 155] ([NMeAhp(2)]IA[Aze][NMeCha][Sar][hPhe(3-Cl-4-CF3)]P[Ac5c][NMeGly(cPent)][NMeD]-{Azetidin(1-yl)}; lactam N-11) | 20 to 50 nM |
| CC(C)C[C@H]1C(=O)N[C@@H](C2CCC2)C(=O)N(C)[C@@H](C)C(=O)N2CC[C@H]2C(=O)N(C)[C@@H](CC2CCCCC2)C(=O)N(C)CC(=O)N[C@@H](CCc2ccc(C(F)(F)F)c(Cl)c2)C(=O)N2CCC[C@H]2C(=O)NC2(CCCC2)C(=O)N(C)[C@@H](C(C)C)C(=O)N(C)[C@H](C(=O)N2CCCCC2)CC(=O)N1C [Compound 157] ([NMeL][Gly(cBu)][NMeA][Aze][NMeCha][Sar][hPhe(3-Cl-4-CF3)]P[Ac5c][NMeV][NMeD]-Piperidide; lactam N-11) | 100 to 500 nM |
| CC[C@H](C)[C@@H]1NC(=O)[C@H](CC(C)C)N(C)C(=O)C[C@@H](C(=O)N2CCCCC2)N(C)C(=O)[C@H](C2CCCCC2)N(C)C(=O)C2(CCCC2)NC(=O)CN(CC)C(=O)[C@H](CCc2ccc(C(F)(F)F)c(Cl)c2)NC(=O)CN(C)C(=O)[C@H](CC2CCCCC2)N(C)C(=O)CN(C)C(=O)CN(C)C1=O [Compound 160] ([NMeL]I[Sar][Sar][NMeCha][Sar][hPhe(3-Cl-4-CF3)][NEtG][Ac5c][NMeChg][NMeD]-Piperidide; lactam N-11) | 50 to 100 nM |
| CCCCC[C@H]1C(=O)N[C@@H]([C@@H](C)CC)C(=O)N[C@@H](C)C(=O)N2CC[C@H]2C(=O)N(C)[C@@H](COCCC)C(=O)N(C)CC(=O)N[C@@H](CCc2ccc(C(F)(F)F)c(Cl)c2)C(=O)N2CCC[C@H]2C(=O)NC2(CCCC2)C(=O)N(C)[C@@H](C2CCCC2)C(=O)N(C)[C@H](C(=O)N2C3CCC2COC3)CC(=O)N1C [Compound 163] ([NMeAhp(2)]IA[Aze][NMeS](Propyl)[Sar][hPhe(3-Cl-4-CF3)]P[Ac5c][NMeGly(cPent)][NMeD]-{3Oxa8azabicyclo(3.2.1)octane}; lactam N-11) | 50 to 100 nM |
| CC[C@H](C)[C@@H]1NC(=O)[C@H](CC(C)C)N(C)C(=O)C[C@@H](C(=O)N2CCCCC2)N(C)C(=O)[C@H](C2CCCC2)N(C)C(=O)C2(CCCC2)NC(=O)[C@@H]2CCCN2C(=O)[C@H](CCc2ccc(C(F)(F)F)c(Cl)c2)NC(=O)CN(C)C(=O)[C@H](C2CCCC2)N(C)C(=O)[C@@H]2CCN2C(=O)[C@H](C)N(C)C1=O [Compound 182] ([NMeL]I[NMeA][Aze][NMeGly(cPent)][Sar][hPhe(3-Cl-4-CF3)]P[Ac5c][NMeGly(cPent)][NMeD]-Piperidide; lactam N-11) | 20 to 50 nM |
| CC[C@H](C)[C@@H]1NC(=O)[C@H](CC(C)C)N(C)C(=O)C[C@@H](C(=O)N2CCCC2)N(C)C(=O)[C@H](C2CCCC2)N(C)C(=O)C2(CCCC2)NC(=O)[C@@H]2CCCN2C(=O)[C@H](CCc2ccc(C(F)(F)F)c(Cl)c2)NC(=O)CN(C)C(=O)[C@H](C2CCCC2)N(C)C(=O)[C@@H]2CCN2C(=O)[C@H](C)N(C)C1=O [Compound 201] ([NMeL]I[NMeA][Aze][NMeGly(cPent)][Sar][hPhe(3-Cl-4-CF3)]P[Ac5c][NMeGly(cPent)][NMeD]-Pyrrolidide; lactam N-11) | 20 to 50 nM |
| CC[C@H](C)[C@@H]1NC(=O)[C@H](CC(C)C)N(C)C(=O)C[C@@H](C)NC(=O)[C@H](C(C)C)N(C)C(=O)C2(CCCC2)NC(=O)[C@@H]2CCCN2C(=O)[C@H](CCc2ccc(C(F)(F)F)c(Cl)c2)NC(=O)CN(C)C(=O)[C@H](Cc2ccc(Cl)cc2)N(C)C(=O)[C@@H]2CCN2C(=O)CN(C)C1=O [Compound 207] (cyclo([Ac5c][NMeV][d(β3hA)][NMeL]I[Sar][Aze][NMePhe(4-Cl)][Sar][hPhe(3-Cl-4-CF3)]P)) | 100 to 500 nM |
| CC[C@H](C)[C@@H]1NC(=O)[C@H](C2CCCC2)N(C)C(=O)C[C@@H](C(=O)N2CCCCC2)N(C)C(=O)[C@H](C(C)C)N(C)C(=O)C2(CCCC2)NC(=O)[C@@H]2CCCN2C(=O)[C@H](CCc2ccc(C(F)(F)F)c(Cl)c2)NC(=O)CN(C)C(=O)[C@H](CC2CCCCC2)N(C)C(=O)[C@@H]2CCN2C(=O)[C@H](C)N(C)C1=O [Compound 225] ([NMeGly(cPent)]I[NMeA][Aze][NMeCha][Sar][hPhe(3-Cl-4-CF3)]P[Ac5c][NMeV][NMeD]-Piperidide; lactam N-11) | 100 to 500 nM |
| CCCOC[C@H]1C(=O)N(C)CC(=O)N[C@@H](CCc2ccc(C(F)(F)F)c(F)c2)C(=O)N2CCC[C@H]2C(=O)NC2(CCCC2)C(=O)N(C)[C@@H]([C@@H](C)CC)C(=O)N(C)[C@H](C(=O)N2CCCCC2)CC(=O)N(C)[C@@H](CC(C)C)C(=O)N[C@@H]([C@@H](C)CC)C(=O)N(C)[C@@H](C)C(=O)N2CC[C@H]2C(=O)N1C [Compound 236] ([NMeL]I[NMeA][Aze][NMeS](Propyl)[Sar][hPhe(3-F,4-CF3)]P[Ac5c][NMeI][NMeD]-Piperidide; lactam N-11) | 20 to 50 nM |
